Assay results from patent US20050233313A1, “Methods and reagents for identifying inhibitors of viral protease activity” (priority 2002, published 2005).

The substances below were run on β-galactosidase substrate with HIV protease cleavage site (assay: cleavage of a β-galactosidase substrate by processed PR expressed from pMono in E. coli, Western blot). Conditions: single alanine substitutions in processed monomeric PR; full-length β-galactosidase cleavage, average of two or more inductions.
Format: cell-based
Description: Plasmid pMono expresses wild-type or mutated monomeric protease from the tac promoter (Amann et al. (1983) Gene 25:167-178) in Escherichia coli and was derived from plasmid P1+IQ (Baum et al. (1990) Proc. Natl. Acad. Sci. USA 87:10023-10027). Protease sequences in P1+1Q were replaced by a linker of 5′ XhoI-XbaI-SalI-PstI 3′ to produce p1CVx. Wild-type or mutated protease sequences were obtained from pET-PR by PCR with primers 5′Xho (AATATA-CTCGAG-[…], SEQ ID NO: 1) and 3′Xba (ATAAAT-TCTAGA-[…], SEQ ID NO: 2) and were inserted into p1CVx to produce pMono. The phagemid pET-PR contains the 99-residue coding domain of the monomeric protease (HXB2 isolate [Ratner et al. (1987) AIDS Res. Hum. Retrovir. 3:57-69]) inserted into the NdeI-BamHI sites of pET24a (Novagen). The Kunkel method using single-stranded templates of pET-PR substituted with uracil was employed for site-directed mutagenesis (Bebenek and Kunkel (1989) Nucleic Acids Res. 17:5408, Kunkel et al. (1991) Methods Enzymol204:125-139). Mutations were confirmed by DNA sequencing prior to transfer of the protease sequences into p1CVx.
Uninduced mid-log-phase (optical density at 600 nm=0.5) cultures of lac-E. coli strain MC1061 carrying pMono were grown in yeast-tryptone medium to produce samples for Western blot analysis. Cells were pelleted, resuspended in 400 μl of sodium dodecyl sulfate (SDS)-polyacrylamide gel electrophoresis (PAGE) sample buffer (Pettit et al. (1991) J. Biol. Chem. 266:14539-14547) (optical density at 600 nm=˜0.5), and heated to 95° C. for 4 min. SDS-PAGE was performed on Tris-glycine gels (7.5% polyacrylamide) (Laemmli (1970) Nature […]). Separated proteins were bound to nitrocellulose by electrotransfer, blocked for 1 h with 3% bovine serum albumin in Tris-buffered saline-0.1% Tween 20, and probed with anti-β-galactosidase monoclonal antibody (Boehringer) at a 1:5,000 dilution. Following multiple washes in Tris-buffered saline-0.1% Tween 20, β-galactosidase was detected with the ECL Plus system followed by autoradiography according to the instructions of the manufacturer (Amersham Pharmacia). The extent of β-galactosidase cleavage was determined by densitometric measurement on a Molecular Dynamics Storm model 800 Phosphorlmager. For scanning, the Phosphorlmager was set in the blue fluorescence and chemifluorescence mode with a photomultiplier tube voltage of 700 V. The final value for percent cleavage of the β-galactosidase substrate was determined by taking the average of two or more independent inductions.
For these studies, we modified an E. coli expression system developed as described in Baum et al. (1990) Proc. Natl. Acad. Sci. USA 87:10023-10027. The vector (pMono) expresses HIV protease and the β-galactosidase gene. A cleavage cassette consisting of a decapeptide corresponding to an HIV protease cleavage site was inserted into the β-galactosidase open reading frame. In this system, enzyme activity may be assessed via Western blotting as the percent cleavage of full-length β-galactosidase.

“D25A: processed HIV-1 protease with replacement of the catalytic aspartate, negative control” and “F99A: processed HIV-1 protease with single alanine substitution of dimer interface residue Phe 99” are the same in “% Cleavage” value: 0% for the first, 0% for the second.

First: L97A: processed HIV-1 protease with single alanine substitution of dimer interface residue Leu 97
Second: N98A: processed HIV-1 protease with single alanine substitution of dimer interface residue Asn 98
The “% Cleavage” value of the first is lower: 0% for the first, 68% for the second.

Going from “P1A: processed HIV-1 protease with single alanine substitution of dimer interface residue Pro 1” to “Q2A: processed HIV-1 protease with single alanine substitution of dimer interface residue Gln 2”, the “% Cleavage” value rises from 92% to 96%.

First: T4A: processed HIV-1 protease with single alanine substitution of dimer interface residue Thr 4
Second: T96A: processed HIV-1 protease with single alanine substitution of dimer interface residue Thr 96
The “% Cleavage” value of the first is higher: 96% for the first, 14% for the second.

In the case of “Wild type: wild-type mature 99-residue monomeric HIV-1 protease (HXB2) expressed from pMono”, the “% Cleavage” value is reported as 96%.
